“Also recorded” adds a separate entry of the source.
Experiments:
UGT1A1 = molecular target: T1, UGT1A1 (Homo sapiens, UniProt P22309); assay: Glucuronidation by recombinant human UGT1A1
T1 sequence (P22309 26-533): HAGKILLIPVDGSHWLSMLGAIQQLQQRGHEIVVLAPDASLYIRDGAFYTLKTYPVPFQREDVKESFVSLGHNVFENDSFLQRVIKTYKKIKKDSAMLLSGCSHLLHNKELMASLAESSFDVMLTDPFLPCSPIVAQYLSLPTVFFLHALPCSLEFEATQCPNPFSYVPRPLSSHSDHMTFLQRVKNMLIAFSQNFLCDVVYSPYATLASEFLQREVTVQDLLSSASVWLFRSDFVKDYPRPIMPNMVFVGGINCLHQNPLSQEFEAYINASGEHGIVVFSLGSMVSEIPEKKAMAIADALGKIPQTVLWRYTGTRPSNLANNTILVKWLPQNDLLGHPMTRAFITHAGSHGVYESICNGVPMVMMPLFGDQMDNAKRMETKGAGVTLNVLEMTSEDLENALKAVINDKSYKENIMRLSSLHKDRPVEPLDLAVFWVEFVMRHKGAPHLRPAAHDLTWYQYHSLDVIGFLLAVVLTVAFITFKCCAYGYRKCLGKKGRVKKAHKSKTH

UGT1A3 = molecular target: T2, UGT1A3 (Homo sapiens, UniProt P35503); assay: Glucuronidation by recombinant human UGT1A3
T2 sequence (P35503 29-534): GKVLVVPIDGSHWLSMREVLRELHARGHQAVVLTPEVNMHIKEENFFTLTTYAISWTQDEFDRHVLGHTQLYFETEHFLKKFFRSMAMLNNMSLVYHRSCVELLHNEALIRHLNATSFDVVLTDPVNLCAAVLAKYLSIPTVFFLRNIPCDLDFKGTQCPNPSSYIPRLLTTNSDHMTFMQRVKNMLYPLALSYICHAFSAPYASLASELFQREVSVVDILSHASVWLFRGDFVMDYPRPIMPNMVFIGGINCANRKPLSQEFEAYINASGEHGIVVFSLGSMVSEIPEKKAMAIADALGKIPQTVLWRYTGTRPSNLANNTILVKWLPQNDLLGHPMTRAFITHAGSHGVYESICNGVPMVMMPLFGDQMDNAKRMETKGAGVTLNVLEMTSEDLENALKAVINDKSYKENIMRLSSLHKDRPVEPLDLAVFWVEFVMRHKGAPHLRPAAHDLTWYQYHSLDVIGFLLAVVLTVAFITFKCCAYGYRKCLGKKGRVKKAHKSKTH

UGT1A9 = molecular target: T3, UGT1A9 (Homo sapiens, UniProt O60656); assay: Glucuronidation by recombinant human UGT1A9
T3 sequence (O60656 26-530): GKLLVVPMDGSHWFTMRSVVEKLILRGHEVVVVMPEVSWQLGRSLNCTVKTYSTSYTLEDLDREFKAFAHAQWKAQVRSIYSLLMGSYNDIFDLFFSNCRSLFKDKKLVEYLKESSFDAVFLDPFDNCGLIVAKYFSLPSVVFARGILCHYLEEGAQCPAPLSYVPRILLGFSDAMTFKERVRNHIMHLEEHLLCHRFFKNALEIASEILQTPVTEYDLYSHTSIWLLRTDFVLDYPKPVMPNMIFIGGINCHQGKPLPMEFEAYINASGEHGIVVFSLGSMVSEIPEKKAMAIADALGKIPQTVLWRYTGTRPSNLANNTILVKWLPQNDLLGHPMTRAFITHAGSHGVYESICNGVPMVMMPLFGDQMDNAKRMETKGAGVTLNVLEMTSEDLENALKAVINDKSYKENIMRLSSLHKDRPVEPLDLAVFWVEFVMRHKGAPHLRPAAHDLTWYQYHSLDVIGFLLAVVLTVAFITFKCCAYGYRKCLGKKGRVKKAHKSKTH

[1] = tested on: UGT 1A1, 1A3, 1A6, 1A7, 1A8, 1A9, 1A10 and 2B7; assay: Glucuronidation by the panel of 8 recombinant human UGT isoforms; settings: substrate 10 μM
UGT1A6 = molecular target: T4, UGT1A6 (Homo sapiens, UniProt P19224); assay: Glucuronidation by recombinant human UGT1A6; settings: UGT1A6, substrate 10 μM
T4 sequence (P19224 27-532): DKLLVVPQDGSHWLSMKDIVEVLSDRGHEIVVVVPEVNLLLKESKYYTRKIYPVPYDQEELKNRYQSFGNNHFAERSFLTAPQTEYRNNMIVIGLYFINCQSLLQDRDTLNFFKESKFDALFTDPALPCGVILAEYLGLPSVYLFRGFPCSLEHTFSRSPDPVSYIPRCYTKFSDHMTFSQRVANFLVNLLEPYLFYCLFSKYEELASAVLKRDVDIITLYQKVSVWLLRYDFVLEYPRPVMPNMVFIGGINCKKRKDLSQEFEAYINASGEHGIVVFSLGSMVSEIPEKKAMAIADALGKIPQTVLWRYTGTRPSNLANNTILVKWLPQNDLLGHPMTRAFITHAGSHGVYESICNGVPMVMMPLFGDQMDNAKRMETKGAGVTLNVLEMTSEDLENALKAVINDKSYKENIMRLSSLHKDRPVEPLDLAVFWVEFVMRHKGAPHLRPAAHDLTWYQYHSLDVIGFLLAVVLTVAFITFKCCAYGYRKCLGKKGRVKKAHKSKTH

UGT1A8 = molecular target: T5, UGT1A8 (Homo sapiens, UniProt Q9HAW9); assay: Glucuronidation by recombinant human UGT1A8; settings: UGT1A8, substrate 35 μM
T5 sequence (Q9HAW9 26-530): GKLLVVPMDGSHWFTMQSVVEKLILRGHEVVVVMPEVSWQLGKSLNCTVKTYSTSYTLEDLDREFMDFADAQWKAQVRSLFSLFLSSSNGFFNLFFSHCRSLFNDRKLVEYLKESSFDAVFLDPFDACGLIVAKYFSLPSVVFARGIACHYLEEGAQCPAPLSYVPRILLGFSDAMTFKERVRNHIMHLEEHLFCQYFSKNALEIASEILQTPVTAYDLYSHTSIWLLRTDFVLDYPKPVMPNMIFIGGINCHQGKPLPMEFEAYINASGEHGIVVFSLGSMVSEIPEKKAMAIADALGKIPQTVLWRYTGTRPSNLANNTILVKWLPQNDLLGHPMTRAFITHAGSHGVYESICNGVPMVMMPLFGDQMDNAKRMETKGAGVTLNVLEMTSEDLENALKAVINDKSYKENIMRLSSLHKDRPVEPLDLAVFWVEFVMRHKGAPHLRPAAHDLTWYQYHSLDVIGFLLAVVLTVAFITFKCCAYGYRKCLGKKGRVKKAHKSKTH

Row | SMILES | Degree of regiospecificity (major glucuronide in bracket) (UGT1A1; UGT1A1, substrate 2.5 μM) | Degree of regiospecificity (major glucuronide in bracket) (UGT1A1; UGT1A1, substrate 10 μM) | Degree of regiospecificity (major glucuronide in bracket) (UGT1A3; UGT1A3, substrate 2.5 μM) | Degree of regiospecificity (major glucuronide in bracket) (UGT1A3; UGT1A3, substrate 10 μM) | Degree of regiospecificity (major glucuronide in bracket) (UGT1A9; UGT1A9, substrate 2.5 μM) | Degree of regiospecificity (major glucuronide in bracket) (UGT1A9; UGT1A9, substrate 10 μM) | Glucuronidation and regiospecificity across the 8 UGT isoforms [1] | further results
1 | O=c1c(O)c(-c2ccc(O)cc2)oc2ccccc12 [4'HFnol, 3,4’-dihydroxyflavone] | No (3-O, 4’-O) | No (3-O, 4’-O) | Dominant (3-O) | No (3-O, 4’-O) | Dominant (3-O) | Dominant (3-O) | most isoforms showed dominant regiospecificity by glucuronidating almost only the 3-O position | Degree of regiospecificity (major glucuronide in bracket) (UGT1A1; UGT1A1, substrate 2.5 μM, listed as 4’HFnol): did not show any regiospecific preference; Degree of regiospecificity (major glucuronide in bracket) (UGT1A1; UGT1A1, substrate 10 μM, listed as 4’HFnol): no regiospecificity; also recorded: did not show any regiospecific preference; Degree of regiospecificity (major glucuronide in bracket) (UGT1A3; UGT1A3, substrate 10 μM, listed as 4’HFnol): no regiospecificity
2 | O=c1c(O)c(-c2ccccc2)oc2cc(O)ccc12 [7HFnol, 3,7-dihydroxyflavone] | weak regiospecificity for 7-O position; also recorded: weakly preferred the glucuronidation of 7-O position | no preference; also recorded: did not show any regiospecific preference; also recorded: no regiospecificity; also recorded: No (3-O,7-O) | Moderate (7-O) | dominantly regiospecific by glucuronidating hydroxyl group only at C-7 position; also recorded: Dominant (7-O) | moderate regiospecificity for 3-O position | moderate regiospecificity for 3-O position |  | Degree of regiospecificity (3-O vs 7-O) (UGT1A1; UGT1A1, substrate 35 μM): no regiospecificity; Hydroxyl positions glucuronidated (UGT1A6): no position was glucuronidated; Degree of regiospecificity (3-O vs 7-O) (UGT1A8): moderate regiospecificity for 3-O position; Degree of regiospecificity (3-O vs 7-O) (UGT1A9; UGT1A9, substrate 35 μM): no regiospecificity
3 | O=c1cc(-c2ccc(O)cc2)oc2cccc(O)c12 [5,4'DHF, 5,4’-dihydroxyflavone] | Dominant (4’-O) | Dominant (4’-O) | Dominant (4’-O) | Moderate (4’-O) | Dominant (4’-O) | Dominant (4’-O) | 4’-O was the preferred position of glucuronidation in all cases | Degree of regiospecificity (major glucuronide in bracket) (UGT1A1; UGT1A1, substrate 2.5 μM, listed as 5,4’DHF): dominant regiospecificity; Degree of regiospecificity (major glucuronide in bracket) (UGT1A1; UGT1A1, substrate 10 μM, listed as 5,4’DHF): dominant regiospecificity; Degree of regiospecificity (major glucuronide in bracket) (UGT1A3; UGT1A3, substrate 10 μM, listed as 5,4’DHF): moderate regiospecificity for 4’-O position; Degree of regiospecificity (major glucuronide in bracket) (UGT1A9; UGT1A9, substrate 10 μM, listed as 5,4’DHF): dominant regiospecificity
4 | O=c1cc(-c2ccc(O)cc2)oc2cc(O)ccc12 [7,4'DHF, 7,4’-dihydroxyflavone] | Weak (7-O) | Moderate (7-O) | Dominant (7-O) | Dominant (7-O) | Moderate (7-O) | Moderate (7-O) | except UGT1A6, all metabolizing isoforms glucuronidated both hydroxyl groups at C-7 and C-4’ positions | Degree of regiospecificity (major glucuronide in bracket) (UGT1A1; UGT1A1, substrate 2.5 μM, listed as 7,4’DHF): weak; Degree of regiospecificity (major glucuronide in bracket) (UGT1A1; UGT1A1, substrate 10 μM, listed as 7,4’DHF): moderate regiospecificity for glucuronidation of 7-O position; Degree of regiospecificity (major glucuronide in bracket) (UGT1A3; UGT1A3, substrate 10 μM, listed as 7,4’DHF): dominant regiospecificity for glucuronidation of 7-O position; Degree of regiospecificity (major glucuronide in bracket) (UGT1A9; UGT1A9, substrate 10 μM, listed as 7,4’DHF): moderate regiospecificity for glucuronidation of 7-O position
5 | O=c1c(O)c(-c2ccccc2)oc2cc(O)cc(O)c12 [5,7DHFnol, 3,5,7-trihydroxyflavone] | Weak (7-O) | weakly preferred the glucuronidation of 7-O over 3-O position; also recorded: Weak (7-O) | Dominant (7-O) | dominantly regiospecific for 7-O; also recorded: Dominant (7-O) | Weak (3-O) | did not show any regiospecific preference for any position; also recorded: No (3-O, 7-O) |  | Degree of regiospecificity (major glucuronide in bracket) (UGT1A9; UGT1A9, substrate 10 μM, listed as 5,7THFnol): 3-O and 7-O were glucuronidated at comparable rates
6 | O=c1c(O)c(-c2ccccc2)oc2ccccc12 [Fnol, 3-hydroxyflavone] |  |  |  |  |  |  | could be metabolized by any of the 8 UGT isoforms tested | 

From publication PMC3391414 (Journal of Agricultural and Food Chemistry, 2011)
